Assay results: patent US10583103B2, “Method of treating heart failure with preserved ejection fraction with probenecid” (University Of Cincinnati, priority 2013, dated 2020)
Where two headings read alike, the source gives them in different places. Each block holds one molecule with its values, some of them ahead of it.

Columns and labels:
[1] = system: thoracic aortae of wild type mice; assay: Vascular smooth muscle reactivity in isolated aorta (DMT myograph), wild type; set-up: species or system mouse; conditions: for EC50: Mus musculus, phenylephrine pre-contracted, read-out: EC50 for the relaxing effect
[2] = system: thoracic aortae of TRPV2−/− mice; assay: Vascular smooth muscle reactivity in isolated aorta (DMT myograph), TRPV2 knockout; set-up: species or system mouse; developed tension: dose or concentration left out as unconfirmed; conditions: for EC50: Mus musculus, phenylephrine pre-contracted, read-out: EC50 for the relaxing effect
WT mice = assay: Invasive cardiac hemodynamics in intact anesthetized mice (LV pressure development), wild type; format: in vivo, mouse
Method: (§1) All animal procedures were performed with the approval of the Institutional Animal Care and Use Committee (IACUC) of the University of Cincinnati and in accordance with the Guide for the Care and Use of Laboratory Animals (NIH, revised 1996). All wild type (WT) mice (B6129SF2/J F2 and C57BL6J, Jackson laboratories) and TRPV2^−/− mice (breeding pairs provided by Dr. M. Caterina, John's Hopkins, Baltimore, Md.) were males at 12-16 weeks of age (REF). Prior to experiments, mice were maintained on normal rodent chow and water ad libitum, and on a 14 hr/10 hr light/dark cycle (6 AM to 8 PM).
Measurements of left ventricular performance and regional blood flow were performed in separate groups of WT and TRPV2^−/− mice as previously described {Lorenz, 2008#1}. Briefly, mice were anesthetized with an intraperitoneal injection of ketamine (50 μg/gBW) and inactin (thiobutabarbital, 100 μg/gBW, Sigma, MA). A tracheotomy was performed (PE-90), and body temperature was monitored and maintained with a feedback-controlled heating table. The right femoral artery was cannulated with fluid-filled polyethylene tubing for measurement of blood pressure and connected to a low compliance pressure transducer (COBE Cardiovascular, Arvada, Colo.). The right femoral vein was cannulated for delivery of drugs. A high fidelity, 1.2F Scisense pressure catheter (Scisense, London, ON, Canada) was inserted into the right carotid artery and advanced into the left ventricle to monitor cardiac performance. ECG leads were placed on the right and left arms, and left leg and connected to a BIOAmp (ADInstruments, Colorado Springs, Colo.). For carotid blood flow measurements, the left carotid artery was isolated and fitted with a 0.5-PSB perivascular flow probe connected to a TS420 flow meter (Transonic Systems, Ithaca, N.Y.). Pressure, flow, and ECG signals were recorded and analyzed using a PowerLab system (ADInstruments). Hemodynamic measurements were taken at the basal state and after the administration of 30 and 100 μg/g doses of probenecid i.v., with 5 minutes between each dose (100 μg/μl delivered as 0.3 and 1.0 μl/gBW bolus). Measurements were taken from the final 30-40 seconds of each dosage period. Maximum dP/dt (dP/dtmax) and dP/dt at 40 mmHg of developed pressure (dP/dt40) were calculated from the first derivative of the pressure waveforms. Cerebral vascular resistance (CVR) was calculated from recorded channels of mean arterial pressure and mean cerebral blood flow (CVR=MAP/CBF).
Statistical analysis was performed by analysis of variance (ANOVA) using either a single factor within-subjects design, or a two- or three-factor mixed design with repeated measures as appropriate. Individual contrasts were used to compare group effects and interactions when needed, and the Tukey post-hoc test was used to compare individual means where appropriate (SigmaStat v3.5, Point Richmond, Calif.). Data are presented as means±S.E.M., and differences were regarded as significant at P<0.05.

TRPV2−/− mice = assay: Invasive cardiac hemodynamics in intact anesthetized mice (LV pressure development), TRPV2 knockout; format: in vivo, mouse; conditions: probenecid 30 and 100 μg/g i.v. bolus
Method: as §1
Measurements of left ventricular performance and regional blood flow were performed in separate groups of WT and TRPV2^−/− mice as previously described {Lorenz, 2008#1}. […] A tracheotomy was performed (PE-90), and body temperature was monitored and maintained with a feedback-controlled heating table. […] Pressure, flow, and ECG signals were recorded and analyzed using a PowerLab system (ADInstruments). […] Maximum dP/dt (dP/dtmax) and dP/dt at 40 mmHg of developed pressure (dP/dt40) were calculated from the first derivative of the pressure waveforms. Cerebral vascular resistance (CVR) was calculated from recorded channels of mean arterial pressure and mean cerebral blood flow (CVR=MAP/CBF). […]

isolated aortae = assay: Vasoconstrictor effect of probenecid in isolated aortae (cumulative concentration-force relationship); set-up: species or system mouse
TRPV2 = molecular target: T1, TRPV2 (Homo sapiens, UniProt Q9Y5S1); conditions: cited from earlier work
T1 sequence (Q9Y5S1 1-764): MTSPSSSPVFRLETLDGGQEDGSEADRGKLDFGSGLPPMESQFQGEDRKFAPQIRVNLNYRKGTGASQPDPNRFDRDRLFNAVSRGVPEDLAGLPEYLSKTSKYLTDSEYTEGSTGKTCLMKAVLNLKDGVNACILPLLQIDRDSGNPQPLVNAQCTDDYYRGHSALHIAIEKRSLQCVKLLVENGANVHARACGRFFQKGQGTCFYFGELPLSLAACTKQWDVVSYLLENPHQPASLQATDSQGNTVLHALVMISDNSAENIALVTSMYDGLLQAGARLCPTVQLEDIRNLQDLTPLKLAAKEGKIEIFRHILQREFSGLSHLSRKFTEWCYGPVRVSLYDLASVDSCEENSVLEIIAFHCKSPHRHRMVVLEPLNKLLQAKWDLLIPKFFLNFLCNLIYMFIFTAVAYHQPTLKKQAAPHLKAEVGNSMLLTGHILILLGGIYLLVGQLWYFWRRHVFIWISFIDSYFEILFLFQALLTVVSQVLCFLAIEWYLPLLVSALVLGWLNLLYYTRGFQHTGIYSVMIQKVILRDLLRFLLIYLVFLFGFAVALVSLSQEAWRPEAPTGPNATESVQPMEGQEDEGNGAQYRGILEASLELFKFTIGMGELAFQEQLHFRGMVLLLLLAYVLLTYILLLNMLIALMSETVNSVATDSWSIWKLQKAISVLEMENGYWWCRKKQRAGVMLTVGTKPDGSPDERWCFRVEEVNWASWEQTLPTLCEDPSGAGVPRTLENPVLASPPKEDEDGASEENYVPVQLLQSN

[3] = system: isolated WT cardiomyocytes; conditions: putatively through TRPV2 stimulation; cited from earlier work
[4] = endothelium-denuded (−E), pre-contracted with 3 mM phenylephrine

SMILES: CNC[C@H](O)c1cccc(O)c1 [phenylephrine]
maximal developed tension in response to phenylephrine ([1]; endothelium-denuded (−E), n=8): 5.99±0.74 mN | maximal developed tension in response to phenylephrine ([1]; intact endothelium (+E)): 1.45±0.12 mN | maximal developed tension in response to phenylephrine ([2]; endothelium-denuded (−E), n=8): 6.07±0.55 mN | maximal developed tension in response to phenylephrine ([2]; intact endothelium (+E)): 1.75±0.25 mN

EC50 ([1]; intact endothelium (+E)): 670 ± 210 µM | EC50 ([1]; without endothelium (−E)): 4560 ± 340 µM | EC50 ([2]; intact endothelium (+E)): 520 ± 110 µM | EC50 ([2]; without endothelium (−E)): 4590 ± 520 µM
SMILES: CCCN(CCC)S(=O)(=O)c1ccc(C(=O)O)cc1 [probenecid]
lusitropy (WT mice; WT mice, low (30 mg/kg) and high (100 mg/kg) doses): increased lusitropy | contractile function (LV dP/dtmax, dP/dt40) (WT mice; WT mice, probenecid 30 and 100 μg/g i.v. bolus): robust stimulation of contractile function | time to maximal effect on LV dP/dt (WT mice; after i.v. bolus administration): maximal within one minute | duration of stable effect on LV dP/dt (WT mice; after i.v. bolus administration, at the time of reported measurement): at least 5 minutes | cardiac relaxation and diastolic function (WT mice; rodents, summary statement): improved cardiac relaxation and improved diastolic function | contractile function (LV dP/dtmax, dP/dt40), effect relative to WT (TRPV2−/− mice): markedly attenuated | dilatory response, concentration threshold [1, 4]: no significant dilatory response until a concentration of 1 mM | developed tension at 10 mM probenecid ([1]; endothelium-denuded (−E), pre-contracted with phenylephrine, 10 mM): about 25 % of maximum | dilatory response, concentration threshold [2, 4]: no significant dilatory response until a concentration of 1 mM | developed tension ([2]; endothelium-denuded (−E), pre-contracted with phenylephrine): about 25 % of maximum | vasoactive effect (isolated aortae; low and high doses, even in deendothelialized vessels (discussion)): no significant vasoactive effect | vasoconstrictor effect (force production) (isolated aortae; with or without intact endothelium, concentrations as high as 10 mM): no evidence was found of increased force production | TRPV2 agonist activity (TRPV2): selective agonist of TRPV2 | cytosolic Ca2+ concentrations and Ca2+ sparks [3]: increases cytosolic Ca^2+ concentrations and increased Ca^2+ sparks
